# Measured values published in patent US20250281649A1, “PROBE DIRECTED TO ENZYME ALDH1A3 AND USE THEREOF IN THE DIAGNOSIS OF GLIOBLASTOMA” (Universita' Degli Studi Del Piemonte Orientale "A. Avogadro", priority 2021, published 2025).
# “Also recorded” adds a separate entry of the source.
# Tests used:
# [1] = target: T1, ALDH1A3 (Homo sapiens, UniProt P47895); assay: KD evaluation by probe fluorescence (Tecan SPARK); assay type: binding; details: ALDH1A3; probe fixed at 10 μM, isoenzyme 100 μM to 1 μM; read-out: KD
# T1 construct: His-tag; made in house; host or cells: bacterial cells
# T1 sequence (P47895 1-512): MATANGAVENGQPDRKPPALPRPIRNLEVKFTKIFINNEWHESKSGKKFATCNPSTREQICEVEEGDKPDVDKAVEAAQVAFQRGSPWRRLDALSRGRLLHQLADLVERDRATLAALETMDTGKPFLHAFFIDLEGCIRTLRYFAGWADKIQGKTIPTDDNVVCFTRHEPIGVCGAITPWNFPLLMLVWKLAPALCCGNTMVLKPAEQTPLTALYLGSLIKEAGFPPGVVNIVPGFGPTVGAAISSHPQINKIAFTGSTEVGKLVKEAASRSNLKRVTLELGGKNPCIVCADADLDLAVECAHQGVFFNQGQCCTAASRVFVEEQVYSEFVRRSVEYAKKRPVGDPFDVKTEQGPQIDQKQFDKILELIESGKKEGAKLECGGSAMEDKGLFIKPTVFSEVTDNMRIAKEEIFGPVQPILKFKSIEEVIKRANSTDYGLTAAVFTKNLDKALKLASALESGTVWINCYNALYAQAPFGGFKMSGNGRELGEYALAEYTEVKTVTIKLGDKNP
# Procedure: A common protocol to express and purify all three members of the ALDHIA subfamily has been optimized. Briefly, induced cells, collected by centrifugation, were re-suspended in an appropriate volume of lysis buffer (50 mM Na2HPO4, 300 mM NaCl, 1 mM β-mercaptoethanol, 20 mM imidazole, pH 7.5) added of benzonase nuclease (250 U/μL) and Protease inhibitor cocktail from SIGMA. After ultracentrifugation, the clarified sample was purified by a His-tag affinity chromatography followed by size-exclusion chromatography, using an AKTA FPLC system, at 4° C. To evaluate the purity and homogeneity of the protein, after each purification step, eluted d fractions were analyzed by SDS-PAGE and the protein quantification was always determined by Bradford protein assay.
# KD evaluation: on a Tecan—SPARK, probe 14 and 13 were tested at a fixed concentration of 10 μM. All the isoenzymes were tested in wide range of concentrations (from 100 μM to 1 μM). The analysis was settled with a BW of 20, monitoring the Em wavelength in range comprised between 520 and 535 nm for probe 14 and 520 and 580 nm for probe 13. The Ex was fixed at 420 nm for probe 14 and 440 nm for probe 13. The test was performed in quadruplicate with all the three isoenzymes. The recipe of the buffer reaction was the same as described before.
# [2] = tested on: U87MG glioblastoma (ALDH1A3+); assay: Confocal fluorescence of probes in cell lines; assay type: cell-based, human; details: 10 μM to 100 nM, after 2 h
# Procedure: All 3 enzymes belonging to the subfamily 1A of aldehyde dehydrogenases were expressed recombinantly in bacterial cells and purified to homogeneity. The pure enzymes were then used to study the interaction with the molecules according to the invention, using various in vitro biochemical assays. In particular, the affinity for the isoenzymes of the selected molecules was measured through the use of a TECAN SPARK and a TECAN SUNRISE. Fluorescence assays were performed in the presence of different protein concentrations and the activity assays were conducted by measuring NAD^+ consumption. According to their specific activity, all molecules were characterized by values of KD, KM, Ki and IC50, showing a net selectivity in specifically binding the ALDH1A3 enzyme. […]
# Human U87MG glioblastoma were used as ALDH1A3+ cell lines, HEK293T as ALDH1A2+ cell line, human foetal astrocytes (hASTRO) as ALDH1A1+ cell line and 4T1 mammary carcinoma as triple negative ALDHIA subfamily (checked with Western Blot analysis and RT-PCR). […] Moreover, we incubated the two probes with cells and analyzed with FACS and we observed a significant positivity in U87MG cells, too.
# [3] = tested on: 4T1 mammary carcinoma (triple negative ALDH1A subfamily); assay: Confocal fluorescence of probes in cell lines; assay type: cell-based; details: 4T1, 10 μM to 100 nM
# Procedure: (§1) All 3 enzymes belonging to the subfamily 1A of aldehyde dehydrogenases were expressed recombinantly in bacterial cells and purified to homogeneity. The pure enzymes were then used to study the interaction with the molecules according to the invention, using various in vitro biochemical assays. In particular, the affinity for the isoenzymes of the selected molecules was measured through the use of a TECAN SPARK and a TECAN SUNRISE. Fluorescence assays were performed in the presence of different protein concentrations and the activity assays were conducted by measuring NAD^+ consumption. According to their specific activity, all molecules were characterized by values of KD, KM, Ki and IC50, showing a net selectivity in specifically binding the ALDH1A3 enzyme. The probes having curcumin and recognizing the ALDH1A3 enzyme were tested in a cellular context, using four different cell lines classified by the presence or absence of the isoform studied: human glioblastoma line (U87MG, ALDH1A3 positive), embryonic kidney cell line (HEK293T, ALDH1A2 positive), human astrocyte line (hAstro, ALDH1A1 positive) and a breast cancer line (4T1, ALDHIA negative). […] The binding ability of the probes to these cell lines was also verified and confirmed by flow cytometry.
# (§2) Human U87MG glioblastoma were used as ALDH1A3+ cell lines, HEK293T as ALDH1A2+ cell line, human foetal astrocytes (hASTRO) as ALDH1A1+ cell line and 4T1 mammary carcinoma as triple negative ALDHIA subfamily (checked with Western Blot analysis and RT-PCR). All these cell lines were incubated with Probe 14 and 13 at different concentrations (from 10 μM to 100 nM). At all these concentrations we observed a selectivity of probe 14 and 13 on U87MG cells after 2 h, that appeared to be cytoplasmic, no signal has been verified in HEK293T, hASTRO and 4T1 cell lines. Moreover, we incubated the two probes with cells and analyzed with FACS and we observed a significant positivity in U87MG cells, too.
# [4] = tested on: HEK293T (ALDH1A2+); assay: Confocal fluorescence of probes in cell lines; assay type: cell-based; details: 10 μM to 100 nM
# Procedure: as §1, §2
# [5] = tested on: human foetal astrocytes (hASTRO, ALDH1A1+); assay: Confocal fluorescence of probes in cell lines; assay type: cell-based; details: 10 μM to 100 nM
# Procedure: as §1, §2
# [6] = tested on: GL261 glioblastoma cells; assay: In vivo labelling of GL261 glioma in mouse brain after i.p. injection; details: GL261 tumor-bearing mouse brain, 6 hours after injection, 6 days after implantation
# From the text: We used in vitro and in vivo cells from a mouse high grade glioma cell line, GL261, Briefly, twenty-four 2- to 3-month-old female C57BIC mice were stereotactically implanted under deep general anesthesia (isoflurane supplemented with nitrous oxide) with 1×10^5 GL261 glioblastoma cells. The cells were stereotactically inoculated through a burr hole by a Hamilton syringe into the left striatum (coordinates: 1 mm anteroposterior and 1 mm lateral from bregma, at a depth of 3 mm). All experimental procedures were conducted in accordance with the European Communities Council Directive of 24 Nov. 1986 (86/609 EEC), Recommendation 18/06/2007, Dir. 2010/63/UE, and the Italian law for care and use of experimental animals (DL116/92) and were approved by the Italian Ministry of Health (prot. E669C.15) and the Bioethical Committee of the University of Turin. All animals were housed under a 12-hour light-dark cycle in an environmentally controlled room. All experiments were designed to minimize the numbers of animals used and their discomfort. In each experiment, animals with tumors were allocated to two groups and i.p. injected with probe 14 or probe 13. All drugs were administered intraperitoneally, and treatments were started days 6 after tumor implantation. […] Quantitative and phenotypic evaluations were made on images acquired with a Leica TCS SP5 confocal microscope.
SMILES,Kd [1] [µM],fluorescence signal in cells [2],fluorescence signal in cells [3],fluorescence signal in cells [4],fluorescence signal in cells [5],probe fluorescence / penetration in tumor cells in vivo [6]
COc1cc(/C=C/C(=O)/C=C(O)/C=C/c2ccc(OCc3cn(CCOc4ccc(C=O)cc4)nn3)c(OC)c2)ccc1O [Compound 13],38.2,selectivity; also recorded: selectively illuminate cells expressing only ALDH1A3,no signal,no signal,no signal,fluoresce in green
CCOC(=O)Cn1cc(COc2ccc(/C=C/C(O)=C/C(=O)/C=C/c3ccc(O)c(OC)c3)cc2OC)nn1 [Compound 14],84.3,selectivity,no signal,no signal,no signal,does not penetrate to any appreciable level
